The source of these data is patent US6656942B2, “Orally active salts with tyrosine kinase activity” (Merck & Co., Inc., priority 2000, dated 2003).

Structures can show the parent of a compound that is named as a salt. A value given as a limit tells only on which side of the number the result lay.

Holding throughout (type): physicochemical
A short description of series [1]: Solubility and pH of salts of 4-9 prepared in situ. The note with it: for solubility: 1.05 mole equivalents of acid, 100 μL of water, spun overnight, HPLC; for pH: pH of the liquid residue of the sample. As for the experimental part: Two forms of the mesylate salt were made: Salt 4-9A above and Salt 4-9B below. Numerous salts of 4-9 were prepared in situ and analyzed using the procedure outlined below,
3) The reagents were mixed with a Vortex mixer and left to stand at room temperature or warmed if needed to dissolve the solid.
4) 100 μL of water were added to suspend the solid.
5) Tube was then covered with aluminum foil and spun overnight on a rotator.
6) The tube was then spun in a centrifuge for 10 minutes at 10,000 RPM.
7) An aliquot was removed from the sample and dried with nitrogen overnight to produce the solid residue (salt) which was analyzed via microscopy and DCS.
8) The liquid residue from the remaining sample was used to measure pH and determine the concentration of salt by HPLC.

Series [2] in a line: Measurement of salt solubility: free base 1-11 treated with acid, suspended in water, HPLC. The note with it: for pH: pH in equilibrium with the solid phase, most likely lower than pH of the salt in water; for solubility: salt made in situ with 1.05-1.1 molar equivalence of acid, suspended in water several days, method overestimates the solubility. As to the method:
The pH and concentration of the compound in equilibrium with the solid phase was measured by HPLC (UV-Vis detection).

The nature of series [3]: Solubility of free base 1-11 at room temperature in 0.05M aqueous buffers, water, organic solvents and HPβCD. As to the method: The solubility of 1-11 at room temperature was determined in 0.05M aqueous buffers, water and several organic solvents.
Series [4] is described as follows: Solubility of crystalline mesylate salts 1-11A and 1-11B. As for the experimental part: The amorphous mesylate salt was recrystallized from 50:50 Ethanol:THF to give a crystalline powder (Salt 1-11A). The X-ray powder diffraction pattern (XRPD) of the recrystallized mesylate salt 1-11A (FIG. 2) is indicative of crystalline material with multiple diffraction peaks between 5° and 30° 2-theta.
A second batch of crystalline mesylate salt (Salt 1-11B) was obtained by the following procdeure. To a stirred suspension of 1-11 (4.026 g, 9.22 mmol) in MeOH was slowly added at room temperature (RT) one equivalent of a 0.3M solution of methanesulfonic acid (30.73 mL). After all the solid had dissolved, the mixture was filtered into a flask and concentrated under reduced pressure while cooled to about 10° C. The resulting solid was suspended with 200 mL of ethylacetate, filtered, and dried to afford the mesylate salt. […] This crystalline form is different by XRPD than the one recrystallized from the amorphous salt in EtOH/THF (Salt 1-11A).

The nature of series [5]: Aqueous solubility at room temperature, quantitated by HPLC. As to conditions: for aqueous solubility at room temperature / solubility: water, HPLC, room temperature; for crystallization out of the concentrated aqueous solution: time scale of the experiment (24 hours); for solubility: thermodynamic from solid. As for the experimental part:
The free base 2-1 is a yellow powder. […] The crystals appear plate-like with most of the particles below 10 microns. […] The aqueous solubility was measured using HPLC to quantitate the compound in suspension.
The mesylate salt 2-1A is a yellow powder. […] A broad non-reversible endotherm centered around 87° C. is attributed to loss of solvent/moisture. The aqueous solubility was measured using HPLC to quantitate the compound.
The HCl salt 2-1B was also a yellow powder. […] This indicates the presence of both amorphous and crystalline material. […] The aqueous solubility was measured using HPLC to quantitate the compound.
The free base is a yellow powder which contains particles that are birefringent under polarized light indicating the presence of crystalline material. […] The aqueous solubility was measured using HPLC to quantitate the compound in an aqueous suspension.
The HCl salt is also a yellow solid, which contains particles that are birefringent under polarized light indicating the presence of crystalline material. […] The aqueous solubility was measured using HPLC to quantitate the compound in suspension.
The yellow, mesylate salt was examined under polarized light by optical microscopy. […] It is possible that the small amount of crystalline solid went undetected by optical microscopy. The aqueous solubility was measured using HPLC to quantitate the compound in suspension.
This mesylate salt 4-9A, which is a yellow powder, was examined under polarized light by optical microscopy. The crystals appear birefringent under polarized light indicating crystallinity. The crystals appear plate-like with few agglomerates. […] The aqueous solubility was measured using HPLC to quantitate the compound in suspension.

As to `COCCN(C)CCOc1ccc2[nH]c(-c3cc4ccccc4[nH]c3=O)cc2c1` [4-9 Free Base, 3-(5-{2-[(2-methoxyethyl)(methyl)amino]ethoxy}-1H-indol-2-yl)-2(1H)-quinolinone], the solubility – broadly, the concentration that dissolves in the medium under given conditions – in series [1] (pH 6.75, thermodynamic from solid, read-out: Solubility) was determined as 75 µg/mL. In addition, the pH in series [1] worked out at 6.75.

Take `CS(=O)(=O)N1CCN(Cc2ccc3[nH]c(-c4cc5ccccc5[nH]c4=O)cc3c2)CC1` [Acetate salt of 1-11]: in series [2], the pH was determined as 3.3 and the solubility was 91 µg/mL.

`CS(=O)(=O)N1CCN(Cc2ccc3[nH]c(-c4cc5ccccc5[nH]c4=O)cc3c2)CC1` [Besylate salt of 1-11]: in series [2], the pH is 2.4 and the solubility was 3.8 µg/mL.

For the compound `CS(=O)(=O)N1CCN(Cc2ccc3[nH]c(-c4cc5ccccc5[nH]c4=O)cc3c2)CC1` [HBr salt of 1-11], in series [2], the pH amounted to 2.9 and the solubility is 200 µg/mL.

On to `CS(=O)(=O)N1CCN(Cc2ccc3[nH]c(-c4cc5ccccc5[nH]c4=O)cc3c2)CC1` [HCl salt of 1-11], for which, in series [2], the pH is recorded as 2.3 and the solubility was 430 µg/mL.

Take `COCCN(C)CCOc1ccc2[nH]c(-c3cc4ccccc4[nH]c3=O)cc2c1` [HCl salt of 4-9]: in series [1], the solubility amounted to 22400 µg/mL and the pH came out at 2.34.

As for `CS(=O)(=O)N1CCN(Cc2ccc3[nH]c(-c4cc5ccccc5[nH]c4=O)cc3c2)CC1` [Maleate salt of 1-11], in series [2], the pH was 2.5 and the solubility is 160 µg/mL.

Take `COCCN(C)CCOc1ccc2[nH]c(-c3cc4ccccc4[nH]c3=O)cc2c1` [Mesylate 4-9B]: in series [1], the solubility came to 22000 µg/mL and the pH worked out at 5.08.

Consider `CS(=O)(=O)N1CCN(Cc2ccc3[nH]c(-c4cc5ccccc5[nH]c4=O)cc3c2)CC1` [Mesylate salt of 1-11], for which, in series [2], the pH amounted to 2.3 and the solubility is 580 µg/mL.

`CS(=O)(=O)N1CCN(Cc2ccc3[nH]c(-c4cc5ccccc5[nH]c4=O)cc3c2)CC1` [Salt 1-11, 3-[5-(4-Methanesulfonyl-piperazin-1-ylmethyl)-1H-indol-2-yl]-1H-quinolin-2-one]: the solubility in series [3] (0.05 M carbonate buffer, pH 10.09, aqueous buffer, 0.05 M Carbonate, pHfinal 10.09, room temperature) was found to be 79 µg/mL; in series [3] (0.05 M carbonate buffer, pH 11.15, aqueous buffer, 0.05 M Carbonate, pHfinal 11.15, room temperature), 77 µg/mL; in series [3] (0.05 M citrate buffer, pH 3.23, aqueous buffer, 0.05 M Citrate, pHfinal 3.23, room temperature), 92 µg/mL; in series [3] (0.05 M citrate buffer, pH 4.15, aqueous buffer, 0.05 M Citrate, pHfinal 4.15, room temperature), 73 µg/mL; in series [3] (0.05 M citrate buffer, pH 5.07, aqueous buffer, 0.05 M Citrate, pHfinal 5.07, room temperature) it was 70 µg/mL; in series [3] (0.05 M citrate buffer, pH 6.01, aqueous buffer, 0.05 M Citrate, pHfinal 6.01, room temperature) it was 71 µg/mL. Further, the solubility amounted to 71 µg/mL in series [3] (0.05 M phosphate buffer, pH 6.96, aqueous buffer, 0.05 M Phosphate, pHfinal 6.96, room temperature); 74 µg/mL in series [3] (0.05 M phosphate buffer, pH 7.93, aqueous buffer, 0.05 M Phosphate, pHfinal 7.93, room temperature); 73 µg/mL in series [3] (0.05 M phosphate buffer, pH 8.86, aqueous buffer, 0.05 M Phosphate, pHfinal 8.86, room temperature); 168 µg/mL in series [3] (25% HPβCD in water, aqueous with cosolvent or surfactant or cyclodextrin, 25% HPβCD, native pH in water (pH = 7.5)); 60 µg/mL in series [3] (50% aqueous Can (probably ACN, acetonitrile), aqueous with cosolvent or surfactant or cyclodextrin, 50% Aqueous Can, room temperature); 0.03 µg/mL in series [3] (Water, room temperature). Besides, the solubility was 84 µg/mL in series [3] (organic solvent or mixture, Acetonitrile, room temperature); 19 µg/mL in series [3] (organic solvent or mixture, Ethanol, room temperature); 6.5 µg/mL in series [3] (organic solvent or mixture, Isopropanol, room temperature); 400 µg/mL in series [3] (pH 2.45, simulated gastric fluid, 0.01 N HCl, pHfinal 2.45, room temperature); 1740 µg/mL in series [3] (pH 3, aqueous with cosolvent or surfactant or cyclodextrin, 10% HPβCD, pH adjusted to ca. 3.0 with HCl); 2350 µg/mL in series [3] (pH 3, aqueous with cosolvent or surfactant or cyclodextrin, 15% HPβCD, pH adjusted to ca. 3.0 with HCl). Moreover, the solubility in series [3] (pH 3, aqueous with cosolvent or surfactant or cyclodextrin, 20% HPβCD, pH adjusted to ca. 3.0 with HCl) was determined as 3570 µg/mL; in series [3] (pH 3, aqueous with cosolvent or surfactant or cyclodextrin, 25% HPβCD, pH adjusted to ca. 3.0 with HCl), 4560 µg/mL.

For the compound `CS(=O)(=O)N1CCN(Cc2ccc3[nH]c(-c4cc5ccccc5[nH]c4=O)cc3c2)CC1` [Salt 1-11A], the solubility turned out to be 63 µg/mL in series [4] (Acetonitrile), 20 µg/mL in series [4] (Isopropanol) and 173 µg/mL in series [4] (Water).

Take `CN1CCN(Cc2ccc3[nH]c(-c4cc5ccccc5[nH]c4=O)cc3c2)CCC1=O` [Salt 2-1, 3-[5-(4-Methyl-5-oxo-[1,4]diazepan-1-ylmethyl)-1H-indol-2-yl]-1H-quinolin-2-one]: in series [5], the aqueous solubility (usually how much of the substance goes into solution per volume) at room temperature was determined as 28 µg/mL.

`CN1CCN(Cc2ccc3[nH]c(-c4cc5ccccc5[nH]c4=O)cc3c2)CCC1=O` [Salt 2-1A, 4-Methyl-5-oxo-1-[2-(2-oxo-1.2-dihydro-quinolin-3-yl)-1H-indol-5-ylmethyl]-[1,4]diazepan-1-ium; methanesulfonate; methanesulfonate]: in series [5], the “crystallization out of the concentrated aqueous solution” value is recorded as “no crystallization was observed” and the “aqueous solubility at room temperature” value is “greater than 9.89 mg/mL”.

Regarding `CN1CCN(Cc2ccc3[nH]c(-c4cc5ccccc5[nH]c4=O)cc3c2)CCC1=O.Cl` [Salt 2-1B, 4-Methyl-5-oxo-1-[2-(2-oxo-1,2-dihydro-quinolin-3-yl)-1H-indol-5-ylmethyl]-[1,4]diazepan-1-ium; methanesulfonate; chloride], in series [5], the “crystallization out of the concentrated aqueous solution” value was “did not crystallize out” and the solubility was greater than 10200 µg/mL.

As for `O=C(CO)N1CCN(Cc2ccc3[nH]c(-c4cc5ccccc5[nH]c4=O)cc3c2)CC1` [Salt 3-10, 3-{5-[4-(2-Hydroxy-ethanoyl)-piperazin-1-ylmethyl]-1H-indol-2-yl}-1H-quinolin-2-one], the “aqueous solubility at room temperature” value in series [5] was 63.5 µg/mL.

Regarding `O=C(CO)N1CCN(Cc2ccc3[nH]c(-c4cc5ccccc5[nH]c4=O)cc3c2)CC1` [Salt 3-10A, 4-(2-Hydroxy-ethanoyl) 1-[2-(2-oxo-1,2-dihydro-quinolin-3-yl)-1H-indol-5-ylmethyl]-piperazin-1H-ium; chloride], the “aqueous solubility at room temperature” value in series [5] came out at 1310 µg/mL.

On to `O=C(CO)N1CCN(Cc2ccc3[nH]c(-c4cc5ccccc5[nH]c4=O)cc3c2)CC1` [Salt 3-10B, 4-(2-Hydroxy-ethanoyl)-1-[2-(2-oxo-1,2-dihydro-quinolin-3-yl)-1H-indol-5-ylmethyl]-piperazin-1-ium; methanesulfonate], for which, in series [5] (methanesulfonate), the “aqueous solubility at room temperature” value was 2430 µg/mL.

Turning to `COCCN(C)CCOc1ccc2[nH]c(-c3cc4ccccc4[nH]c3=O)cc2c1.CS(=O)(=O)O` [Salt 4-9A, 2-methoxy-N-methyl-N-(2-{[2-(2-oxo-1,2-dihydroquinolin-3-yl)-1H-indol-5-yl]oxy}ethyl)ethanaminium methanesulfonate], the solubility in series [5] turned out to be 1500 µg/mL.

Consider `CS(=O)(=O)N1CCN(Cc2ccc3[nH]c(-c4cc5ccccc5[nH]c4=O)cc3c2)CC1` [Sulfate salt of 1-11], for which, in series [2], the pH turned out to be 1.5 and the solubility is 130 µg/mL.

Consider `COCCN(C)CCOc1ccc2[nH]c(-c3cc4ccccc4[nH]c3=O)cc2c1` [Sulfate salt of 4-9], for which, in series [1], the solubility amounted to 4350 µg/mL and the pH was determined as 1.40.
